Assay results from US9527887B2 (priority 2011, dated 2016).
Read-outs that look alike come from different tables or passages of the source. Where a SMILES comes first, the peptide text is derived from it. Bridges are numbered along the chain shown (N, C = ends).

How the values were obtained:
GC-C [1] = biological target: T1, GC-C (Homo sapiens, UniProt P25092); test: cell-based; settings: 30 min at 37° C., IBMX
GC-C [2] = biological target: T1, GC-C; test: biochemical; assay type: binding
[3] = after oral administration at therapeutic dose levels; cited from earlier work

T1 sequence (P25092 24-1073 limits assumed): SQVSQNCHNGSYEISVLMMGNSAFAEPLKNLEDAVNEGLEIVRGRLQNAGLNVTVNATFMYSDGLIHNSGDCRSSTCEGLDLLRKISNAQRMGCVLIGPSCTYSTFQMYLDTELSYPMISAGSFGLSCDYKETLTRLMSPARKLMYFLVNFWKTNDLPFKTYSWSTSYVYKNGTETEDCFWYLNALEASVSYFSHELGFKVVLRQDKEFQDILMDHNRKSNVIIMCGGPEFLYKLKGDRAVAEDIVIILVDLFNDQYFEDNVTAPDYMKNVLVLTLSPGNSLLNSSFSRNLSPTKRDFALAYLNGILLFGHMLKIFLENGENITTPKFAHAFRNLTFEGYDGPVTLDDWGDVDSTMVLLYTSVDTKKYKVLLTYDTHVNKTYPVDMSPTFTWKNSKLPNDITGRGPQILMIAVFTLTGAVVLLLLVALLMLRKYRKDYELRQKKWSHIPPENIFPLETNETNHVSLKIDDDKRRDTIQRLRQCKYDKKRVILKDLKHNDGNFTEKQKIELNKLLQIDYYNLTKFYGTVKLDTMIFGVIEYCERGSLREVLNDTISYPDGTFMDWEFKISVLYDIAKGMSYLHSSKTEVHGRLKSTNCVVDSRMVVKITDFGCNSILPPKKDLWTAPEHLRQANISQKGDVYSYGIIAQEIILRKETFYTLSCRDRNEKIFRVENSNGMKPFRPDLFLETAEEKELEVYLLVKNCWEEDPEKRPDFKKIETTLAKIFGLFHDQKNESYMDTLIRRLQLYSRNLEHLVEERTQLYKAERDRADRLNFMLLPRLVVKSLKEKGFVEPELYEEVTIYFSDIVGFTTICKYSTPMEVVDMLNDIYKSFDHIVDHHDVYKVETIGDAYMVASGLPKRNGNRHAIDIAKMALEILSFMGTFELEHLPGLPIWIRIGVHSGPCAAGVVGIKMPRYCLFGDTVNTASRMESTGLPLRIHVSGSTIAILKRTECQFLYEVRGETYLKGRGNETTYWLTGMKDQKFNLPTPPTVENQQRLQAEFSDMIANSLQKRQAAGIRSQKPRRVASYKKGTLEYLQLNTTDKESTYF

SMILES | EC50 (GC-C [1]; pH 5 (DMEM+20 mM MES), read-out: cGMP response in T84 cells EC50 nM pH 5) [nM] | EC50 (GC-C [1]; pH 8 (DMEM+50 mM sodium bicarbonate), read-out: cGMP response in T84 cells EC50 nM pH 8) [nM] | Ki (GC-C [2]; Binding affinity for GC-C Ki (nM) pH 5) [nM] | Ki (GC-C [2]; Binding affinity for GC-C Ki (nM) pH 8) [nM] | levels of linaclotide seen systemically [3]
CC(C)C[C@@H]1NC(=O)[C@H](CCC(=O)O)NC(=O)[C@@H]2CSSC[C@@H]3NC(=O)[C@H](C)NC(=O)[C@@H]4CCCN4C(=O)[C@H](CC(N)=O)NC(=O)[C@H](CSSC[C@H](NC(=O)[C@H](CC(=O)O)NC(=O)[C@H](CC(=O)O)NC(=O)[C@@H](N)CC(=O)O)C(=O)N2)NC(=O)[C@H](CSSC[C@@H](C(=O)N[C@@H](Cc2ccc(O)cc2)C(=O)O)NC(=O)CNC(=O)[C@H]([C@@H](C)O)NC3=O)NC1=O [Peptide 17, DDDCCELCCNPACTGCY] | 12.9 | 4980 | 4.3 | 27.3 | 
C[C@@H]1NC(=O)[C@@H]2CCCN2C(=O)[C@H](CC(N)=O)NC(=O)[C@@H]2CSSC[C@H](N)C(=O)N[C@H]3CSSC[C@H](NC1=O)C(=O)N[C@@H]([C@@H](C)O)C(=O)NCC(=O)N[C@H](C(=O)N[C@@H](Cc1ccc(O)cc1)C(=O)O)CSSC[C@H](NC(=O)[C@H](Cc1ccc(O)cc1)NC(=O)[C@H](CCC(=O)O)NC3=O)C(=O)N2 [linaclotide, Linaclotide] (H-CCEYCCNPACTGCY-OH; disulfide 1-6, 2-10, 5-13) |  |  |  |  | no detectable levels
